Peptide text beside a SMILES is read from it.

One assay has as its target T1, RXFP1 (Homo sapiens, UniProt Q9HBX9).
T1 construct: expressed in transfected cells; host or cells: HEK-293T
T1 sequence (Q9HBX9 1-757): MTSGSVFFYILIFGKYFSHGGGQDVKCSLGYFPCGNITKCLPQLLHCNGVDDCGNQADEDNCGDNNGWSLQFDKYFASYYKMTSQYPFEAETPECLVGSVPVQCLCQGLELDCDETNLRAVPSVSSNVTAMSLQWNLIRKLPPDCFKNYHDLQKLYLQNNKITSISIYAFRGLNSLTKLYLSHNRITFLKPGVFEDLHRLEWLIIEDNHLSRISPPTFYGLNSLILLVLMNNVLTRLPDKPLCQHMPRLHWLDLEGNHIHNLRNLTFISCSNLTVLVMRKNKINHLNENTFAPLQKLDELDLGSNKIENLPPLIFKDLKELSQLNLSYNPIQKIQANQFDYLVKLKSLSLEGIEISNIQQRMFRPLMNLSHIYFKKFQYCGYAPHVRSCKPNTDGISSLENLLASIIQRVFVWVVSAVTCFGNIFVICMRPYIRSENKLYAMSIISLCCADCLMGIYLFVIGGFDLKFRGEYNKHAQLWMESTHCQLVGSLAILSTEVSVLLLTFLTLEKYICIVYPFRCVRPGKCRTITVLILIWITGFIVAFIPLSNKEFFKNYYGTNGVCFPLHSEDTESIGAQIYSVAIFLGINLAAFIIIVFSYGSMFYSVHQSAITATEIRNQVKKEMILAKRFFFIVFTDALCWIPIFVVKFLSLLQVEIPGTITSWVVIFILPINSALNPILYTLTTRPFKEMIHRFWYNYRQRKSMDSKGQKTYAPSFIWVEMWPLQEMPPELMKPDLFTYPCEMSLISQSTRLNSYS
Put plainly: cAMP reporter gene assay (pCRE β-galactosidase) in HEK-293T cells transfected with RXFP1. Format: cell-based. The conditions noted are these: FIG. 3A, ERK data not shown.

Assay [1] deals with mouse model of OVA-induced chronic allergic airway disease. Put plainly: Mouse model of OVA-induced chronic allergic airway disease. The conditions noted are these: Balb/c mice. Format: in vivo. The text has this: Seven to eight-week old male 129SV mice (which are sensitive to tissue injury and fibrosis) and age-matched female Balb/c mice (which are sensitive to changes in airway hyperresponsiveness) were used for the induction of isoproterenol-induced cardiomyopathy and ovalbumin-induced chronic allergic airways disease, respectively. 16 five week-old male C57BL/6 mice were used in the induction of prostate cancer growth. All animals were obtained from Monash Animal Services (Monash University, Clayton, Victoria, Australia) and housed under standard conditions (maintained on an 12 h light-12 h dark lighting cycle with free access to food and water) in the Department of Pharmacology Animal Room at Monash University.
Twenty-four hours after the last vehicle/drug administration, methacholine-induced airway reactivity was assessed by invasive plethysmography as described before (Locke et al. 2007, Am J Respir Mol Biol 36, 625-632; Royce et al. 2009, Endocrinology 150, 2692-2699). Mice were anaesthetized intraperitoneally with 200 μg/g ketamine and 10 μg/g xylazine. Tracheotomy was performed using an 18-gauge tracheotomy tube and jugular vein cannulated with a 0.61 9 0.28 mm polyethylene tube (Microtube Extrusions, North Rocks, NSW, Australia), Mice were then placed in a plethysmograph chamber (Buxco Research Systems, Wilmington, N.C., USA) where increasing concentrations of acetyl-β-methacholine (from 31.25 μg/kg to 500 μg/kg) were delivered intravenously in five doses. After every dose, airway resistance and compliance were measured (Biosystem XA version 2.7.9; Buxco Electronics Inc, Wilmington, N.C., USA). The change in airway resistance calculated by the maximal resistance after each dose minus baseline resistance (phosphate buffered saline alone) was plotted against each dose of methacholine evaluated.
The mid zone of the male mouse heart and largest lung lobe from female Balb/c mice were fixed in 10% neutral buffered formalin for 24-48 h before being processed and embedded routinely in paraffin wax. Representative sections of tissue, 3-5 um each, were taken and stained with either picrosirius red (Samuel et al. 2011 Lab Invest 91, 675-690) for the detection of interstitial collagen or Masson's trichrome (Royce et al, 2009, Endocrinology 150, 2692-2699) for the detection of subepithelial basement membrane collagen deposition).
Changes in picrosirius-red stained interstitial collagen or epithelial thickness and subepithelial collagen (fibrosis) around the airway lumen from Masson's trichrome-stained sections; which were all captured (at ×20 magnification) using a SPOT digital camera (Q Imaging, Burnaby, BC, Canada) and analysed with Image J 1.3 software (National Institutes of Health, Bethesda, Md.). Four to five fields per mid zone of the heart or 4-5 airways (of 150-350 μm in diameter) per mouse were assessed. Epithelial thickness and subepithelial collagen regions were traced with a digital pen and the thickness of each region calculated by the imaging software. Results were expressed as mean thickness ([…]) of the 4-5 airways sampled.
The apical region of the heart or second largest lung lobe from each mouse was treated as described previously (Samuel C S, et at., 2003, FASEB J 17, 121-123; Royce et at. 2009, Endocrinology 150, 2692-2699) for the determination of hydroxyproline content. Hydroxyproline values were estimated based on a standard curve constructed with serial dilutions of a 0.1 mg/mL stock of trans-4-hydroxyproline-L-proline (Sigma-Aldrich). Hydroxyproline values were then converted to collagen content as detailed previously (Samuel CS, et al. 2004. Endocrinology 145, 4125-4133) and, in turn, divided by the dry weight of each corresponding left ventricular or lung tissue assessed to yield collagen concentration (a measure of fibrosis).
The inventors also tested the fibrosis preventing activity of B7-33 C11.23S in a model of chronic allergic airway disease (AAD). […]

As for `CC[C@H](C)[C@H](NC(=O)[C@H](C)NC(=O)[C@@H](NC(=O)[C@H](CCC(N)=O)NC(=O)[C@H](C)NC(=O)[C@H](CCCNC(=N)N)NC(=O)[C@@H](NC(=O)[C@H](CC(C)C)NC(=O)[C@H](CCC(=O)O)NC(=O)[C@H](CCCNC(=N)N)NC(=O)CNC(=O)[C@H](CO)NC(=O)[C@H](CC(C)C)NC(=O)[C@H](CCCCN)NC(=O)[C@@H](NC(=O)[C@@H](N)C(C)C)[C@@H](C)CC)C(C)C)[C@@H](C)CC)C(=O)N[C@@H](CO)C(=O)NCC(=O)N[C@@H](CCSC)C(=O)N[C@@H](CO)C(=O)N[C@H](C(=O)N[C@@H](Cc1c[nH]c2ccccc12)C(=O)N[C@@H](CO)C(=O)N[C@@H](CCCCN)C(=O)N[C@@H](CCCNC(=N)N)C(=O)N[C@@H](CO)C(=O)N[C@@H](CC(C)C)C(N)=O)[C@@H](C)O` [B7-33 C11.23S] (H-VIKLSGRELVRAQIAISGMSTWSKRSL-NH2), on RXFP1, the “Activation of cAMP and ERK signalling pathways in HEK-RXFP1 cells (in words)” value is listed as “full agonist, but with poor potency”. Moreover, the “Airway hyper-responsiveness (change in airway resistance to methacholine)” value in assay [1] (OVA-induced increase, invasive plethysmography, FIG. 8D) is listed as “attenuated”. The “Mean airway epithelial thickness” value in assay [1] (compared to OVA treatment, FIG. 8B) was “significantly reduced”. Further, in assay [1] (relative to OVA treatment, FIG. 8C), the “Total lung collagen content (hydroxyproline analysis)” value is recorded as “normalised”.

For the origin of these results see patent US10081662B2, “Modified relaxin B chain peptides” (The Florey Institute of Neuroscience and Mental Health, priority 2014, dated 2018).
